Assay results reported in US6452005B1, “JAK-3 inhibitors for treating allergic disorders” (Parker Hughes Institute, priority 1999, dated 2002).
Where two headings read alike, the source gives them in different places.

What was measured:
recombinant murine JAK3 = biological target: T1, recombinant murine JAK3 (Mus musculus, UniProt Q62137); assay: Immune complex kinase assay, recombinant JAK3 from baculovirus expression system; assay type: biochemical; conditions: recombinant murine JAK3, FIG. 6B
T1 construct: made in house; host or cells: Sf21 insect cells, baculovirus
T1 sequence (Q62137 1-1100): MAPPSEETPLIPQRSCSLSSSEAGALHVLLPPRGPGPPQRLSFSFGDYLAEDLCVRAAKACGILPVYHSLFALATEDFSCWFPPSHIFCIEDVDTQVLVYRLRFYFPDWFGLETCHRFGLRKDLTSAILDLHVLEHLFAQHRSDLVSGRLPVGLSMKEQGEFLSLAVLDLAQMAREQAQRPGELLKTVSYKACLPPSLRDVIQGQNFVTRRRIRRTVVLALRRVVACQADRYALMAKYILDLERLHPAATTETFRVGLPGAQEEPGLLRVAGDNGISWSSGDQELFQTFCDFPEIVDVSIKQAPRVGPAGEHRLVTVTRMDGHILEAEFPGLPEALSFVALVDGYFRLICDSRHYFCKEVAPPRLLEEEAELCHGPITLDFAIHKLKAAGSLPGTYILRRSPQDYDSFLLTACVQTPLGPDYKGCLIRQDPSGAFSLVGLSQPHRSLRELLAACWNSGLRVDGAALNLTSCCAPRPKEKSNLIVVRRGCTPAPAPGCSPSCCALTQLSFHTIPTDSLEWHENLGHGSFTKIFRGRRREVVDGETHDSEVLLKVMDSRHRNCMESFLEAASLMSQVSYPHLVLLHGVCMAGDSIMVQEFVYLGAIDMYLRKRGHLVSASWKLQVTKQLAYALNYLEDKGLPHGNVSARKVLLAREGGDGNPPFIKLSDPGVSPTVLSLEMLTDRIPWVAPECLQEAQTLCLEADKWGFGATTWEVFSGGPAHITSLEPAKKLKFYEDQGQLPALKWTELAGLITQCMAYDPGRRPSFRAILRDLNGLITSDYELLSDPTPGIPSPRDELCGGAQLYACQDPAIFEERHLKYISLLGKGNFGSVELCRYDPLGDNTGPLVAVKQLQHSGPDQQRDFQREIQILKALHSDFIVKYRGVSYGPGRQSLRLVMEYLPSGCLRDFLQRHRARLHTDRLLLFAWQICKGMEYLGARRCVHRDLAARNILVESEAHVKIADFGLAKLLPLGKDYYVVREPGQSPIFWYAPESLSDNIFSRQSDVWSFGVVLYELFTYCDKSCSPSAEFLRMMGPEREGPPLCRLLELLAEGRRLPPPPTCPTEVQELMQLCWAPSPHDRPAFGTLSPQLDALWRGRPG
Protocol: (§1) Immune Complex Kinase Assays.
KL-2 EBV-transformed human lymphoblastoid B cells (native JAK3 kinase assays) or insect ovary cells (recombinant JAK3 kinase assays) were lysed with NP-40 lysis buffer (50 mM Tris, pH 8, 150 mM NaCl, 5 mM EDTA, 1% NP-40, 100 μM sodium orthovanadate, 100 μM sodium molybdate, 8 μg/ml aprotinin, 5 μg/ml leupeptin, and 500 μM PMSF) and centrifuged 10 minutes at 13000×g to remove insoluble material. Samples were immunoprecipitated with antisera prepared against JAK3. The antisera were diluted and immune complexes collected by incubation with 15 μl protein A Sepharose. After 4 washes with NP-40 lysis buffer, the protein A Sepharose beads were washed once in kinase buffer (20 mM MOPS, pH 7.0, 10 mM MgCl2) and resuspended in the same buffer. Reactions were initiated by the addition of 25 μCi γ[^32P] ATP (5000 Ci/mMole) and unlabeled ATP to a final concentration of 5 μM. Reactions were terminated by boiling for 4 min in SDS sample buffer. Samples were run on 9.5% SDS polyacrylamide gels and labeled proteins will be detected by autoradiography. […] For each drug concentration, a kinase activity index (KA) was determined by comparing the kinase activity in phosphorimager units (PIU) to that of the baseline sample. […]

recombinant JAK1 = biological target: T2, recombinant JAK1 (Homo sapiens, UniProt P23458); assay: Immune complex kinase assay, recombinant JAK1; assay type: biochemical; conditions: FIG. 6C & D
T2 construct: made in house; host or cells: Sf21 insect cells, baculovirus
T2 sequence (P23458 whole entry): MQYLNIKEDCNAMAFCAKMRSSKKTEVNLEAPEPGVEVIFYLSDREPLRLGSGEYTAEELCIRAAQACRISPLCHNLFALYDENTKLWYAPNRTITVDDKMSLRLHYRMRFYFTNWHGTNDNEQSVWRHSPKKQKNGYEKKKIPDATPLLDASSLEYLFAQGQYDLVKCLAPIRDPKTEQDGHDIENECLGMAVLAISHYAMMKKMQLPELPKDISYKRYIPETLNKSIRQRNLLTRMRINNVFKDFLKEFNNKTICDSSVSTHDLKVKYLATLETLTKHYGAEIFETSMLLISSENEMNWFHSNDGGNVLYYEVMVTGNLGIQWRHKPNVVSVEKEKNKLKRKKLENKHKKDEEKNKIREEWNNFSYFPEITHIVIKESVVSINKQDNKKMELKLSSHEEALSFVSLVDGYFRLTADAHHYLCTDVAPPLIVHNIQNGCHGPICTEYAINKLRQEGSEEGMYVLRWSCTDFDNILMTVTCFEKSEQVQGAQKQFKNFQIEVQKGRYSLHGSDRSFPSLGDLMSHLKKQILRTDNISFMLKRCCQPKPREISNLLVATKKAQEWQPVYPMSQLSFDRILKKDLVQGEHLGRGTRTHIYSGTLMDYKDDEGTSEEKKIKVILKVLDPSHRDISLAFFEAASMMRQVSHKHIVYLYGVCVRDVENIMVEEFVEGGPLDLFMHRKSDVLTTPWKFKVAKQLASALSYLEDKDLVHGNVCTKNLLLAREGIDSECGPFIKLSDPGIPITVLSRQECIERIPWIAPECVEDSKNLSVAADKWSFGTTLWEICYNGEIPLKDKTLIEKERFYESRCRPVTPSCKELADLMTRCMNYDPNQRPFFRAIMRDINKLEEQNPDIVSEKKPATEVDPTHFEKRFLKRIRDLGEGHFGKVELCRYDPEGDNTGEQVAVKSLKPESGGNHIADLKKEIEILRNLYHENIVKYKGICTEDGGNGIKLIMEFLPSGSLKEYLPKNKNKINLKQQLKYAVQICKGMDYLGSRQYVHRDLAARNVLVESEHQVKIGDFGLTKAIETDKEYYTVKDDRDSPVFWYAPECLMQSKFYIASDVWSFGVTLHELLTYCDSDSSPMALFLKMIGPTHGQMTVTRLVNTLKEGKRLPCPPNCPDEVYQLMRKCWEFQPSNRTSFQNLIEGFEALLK
Description: as §1

[1] = tested on: JAK3-dependent STAT activation; assay: EMSA, IL-2 triggered STAT activation in 32Dc11/IL2Rβ cells; assay type: cell-based
Protocol: (§2) Electrophoretic Mobility Shift Assays (EMSAs). EMSAs were performed to examine the effects of dimethoxyquinazoline compounds on cytokine-induced STAT activation (Goodman et. al., 1998). […] Cells were collected after 15 minutes and resuspended in lysis buffer (100 mM Tris-HCl pH 8.0, 0.5% NP-40, 10% glycerol, […], 0.1 mM NaVO3, 50 mM NaF, 150 mM NaCl, 1 mM DTT, 3 μg/ml Aprotinin, 2 μg/ml Pepstatin A, 1 μg/ml Leupeptin and 0.2 mM PMSF). Lysates were precleared by centrifugation for 30 min. Cell extracts (approximately 10 μg) were incubated with 2 μg of poly(dI-dC) for 30 minutes, followed by a 30 minutes incubation with 1ng of poly. nucleotide kinase-^32P labeled double stranded DNA oligonucleotide representing the IRF-1 STAT DNA binding sequence (Santa Cruz Biotechnology, Santa Cruz, Calif.). Samples were resolved by non-denaturing PAGE and visualized by autoradiography.

[2] = tested on: JAK1/JAK2-dependent STAT activation; assay: EMSA, IL-3 triggered STAT activation in 32Dc11/IL2Rβ cells; assay type: cell-based; conditions: 10 μg/ml
Protocol: as §2

RBL-2H3 mast cells = assay: IgE/antigen-induced degranulation and mediator release; assay type: cell-based, rat; conditions: 1 h preincubation, DNP-BSA challenge; at ≧30 μM
Description: Vehicle treated control RBL-2H3 cells released 45.1±3.1% of their hexosaminidase contents after DNP-BSA challenge. […] Vehicle treated control cells released 11.3±1.3 pg LTC4, and 160±33.0 pg TNFα/10^6 mast cells. The results on LTC4 and TNFα release are expressed as percent of maximum control release from vehicle treated control mast cells. The data points represent the mean±SEM values obtained from 3-6 independent experiments. […] *P<0.05 and **P<0.0001 compared to control as determined by Student's t test.
Supernatants were removed and saved.

recombinant JAK2 = recombinant JAK2 (Homo sapiens, UniProt O60674); assay: Immune complex kinase assay, recombinant JAK2; conditions: FIG. 6C & D
recombinant JAK2, sequence (O60674 whole entry): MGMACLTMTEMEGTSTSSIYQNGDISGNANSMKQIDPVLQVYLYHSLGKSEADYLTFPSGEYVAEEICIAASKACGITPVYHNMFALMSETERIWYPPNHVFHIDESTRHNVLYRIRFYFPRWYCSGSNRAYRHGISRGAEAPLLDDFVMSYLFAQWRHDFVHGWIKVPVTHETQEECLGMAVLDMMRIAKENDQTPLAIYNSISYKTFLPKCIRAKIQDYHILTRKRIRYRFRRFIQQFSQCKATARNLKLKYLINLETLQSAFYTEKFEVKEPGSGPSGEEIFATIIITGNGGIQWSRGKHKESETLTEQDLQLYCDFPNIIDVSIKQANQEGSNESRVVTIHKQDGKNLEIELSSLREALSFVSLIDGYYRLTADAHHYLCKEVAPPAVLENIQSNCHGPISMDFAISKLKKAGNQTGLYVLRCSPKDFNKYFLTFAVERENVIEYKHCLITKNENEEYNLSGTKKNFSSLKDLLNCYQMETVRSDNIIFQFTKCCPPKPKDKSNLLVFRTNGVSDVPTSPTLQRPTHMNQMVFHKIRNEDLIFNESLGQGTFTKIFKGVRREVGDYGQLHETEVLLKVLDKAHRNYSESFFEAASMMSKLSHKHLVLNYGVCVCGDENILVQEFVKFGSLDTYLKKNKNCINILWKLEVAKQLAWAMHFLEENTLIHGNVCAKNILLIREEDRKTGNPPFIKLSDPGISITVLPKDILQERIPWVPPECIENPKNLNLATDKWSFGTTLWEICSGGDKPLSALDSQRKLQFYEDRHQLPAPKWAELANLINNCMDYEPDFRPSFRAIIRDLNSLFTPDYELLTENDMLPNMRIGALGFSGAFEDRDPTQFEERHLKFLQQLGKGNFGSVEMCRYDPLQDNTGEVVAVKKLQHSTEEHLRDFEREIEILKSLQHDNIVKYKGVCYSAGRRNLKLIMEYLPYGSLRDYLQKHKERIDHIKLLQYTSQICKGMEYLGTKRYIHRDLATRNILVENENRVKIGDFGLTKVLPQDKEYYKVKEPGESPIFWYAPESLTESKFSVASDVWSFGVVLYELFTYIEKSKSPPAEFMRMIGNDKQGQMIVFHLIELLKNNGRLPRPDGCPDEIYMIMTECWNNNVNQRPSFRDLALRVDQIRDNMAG
Protocol: In FIGS. 6A-6D, JAK3, JAK1, and JAK2 were immunoprecipitated from Sf21 insect ovary cells transfected with the appropriate baculovirus expression vectors and treated with WHI-P131, then subjected to in vitro kinase assays as described in the Examples below. The enzymatic activity of JAKs was determined by measuring autophosphorylation in a 10 minute kinase assay, as described in the Examples below. The kinase activity (KA) levels were expressed as percentage of baseline activity (%CON).
Immune Complex Kinase Assays. Sf21 (IPLB-SF21-AE) cells (Vassilev et. al., 1999, J. Biol. Chem,. 274:1646-1656) derived from the ovarian tissue of the fall armyworm Spodotera frugiperda, were obtained from Invitrogen and maintained at 26-28° C. in Grace's insect cell medium supplemented with 10% FBS and 1.0% antibiotic/antimycotic (GIBCO-BRL). Stock cells were maintained in suspension at 0.2-1.6×10^6/ml in 600 ml total culture volume in 1 L Bellco spinner flasks at 60-90 rpm. Cell viability was maintained at 95-100% as determined by trypan blue dye exclusion.
Sf21 cells were infected with a baculovirus expression vector for BTK, SYK, JAK1, JAK2, or JAK3, as previously reported (Mahajan et. al., 1999, J. Biol. Chem., 274:1646-1656). […]

## COc1cc2ncnc(Nc3ccc(O)c(Br)c3)c2cc1OC [WHI-P154, 4-(3′-Bromo-4′-hydroxylphenyl)-amino-6,7-dimethoxyquinazoline]
Recombinant murine JAK3
  IC50: 48.1 µg/mL
Recombinant murine JAK3; molar value in brackets, read-out: IC50
  IC50: ~128 µM
Recombinant JAK1
  inhibitory activity against recombinant JAK1: did not exhibit any detectable inhibitory activity
[1]; 10 μg/ml, 32Dc11/IL2Rβ cells
  JAK3-dependent STAT activation after stimulation with IL-2: inhibited
[1]; 100 μg/ml in FIG. 6E legend
  IL-2 triggered JAK-3-dependent STAT activation: inhibited
[2]
  JAK1/JAK2-dependent STAT activation after stimulation with IL-3: did not affect
RBL-2H3 mast cells
  LTC4 release: near to complete inhibition
  TNFα release: near to complete inhibition
  β-hexosaminidase release (degranulation): near to complete inhibition
Recombinant JAK2
  inhibitory activity against recombinant JAK2: did not exhibit any detectable inhibitory activity
